According to patent US5741788A, “Heterocyclic compounds and their preparation and use” (Novo Nordisk A/S, priority 1994, dated 1998):
Where a name gives a salt, the structure may show the parent alone. Read-outs that look alike come from different tables or passages of the source.

How the values were obtained:
[1] = molecular target: T1, M1-site (pirenzepine sensitive site) of muscarinic receptors (Rattus norvegicus, UniProt P08482); assay: inhibition of ^3 H-PRZ (pirenzepine, [N-methyl-^3 H]) binding to rat cerebral cortex membranes; set-up: species or system male Wistar rats
T1 construct: Fresh cortex (0.1-1 g) from male Wistar rats (150-200 g) is homogenized; from tissue; host or cells: cerebral cortex of male Wistar rats
T1 sequence (P08482 1-460): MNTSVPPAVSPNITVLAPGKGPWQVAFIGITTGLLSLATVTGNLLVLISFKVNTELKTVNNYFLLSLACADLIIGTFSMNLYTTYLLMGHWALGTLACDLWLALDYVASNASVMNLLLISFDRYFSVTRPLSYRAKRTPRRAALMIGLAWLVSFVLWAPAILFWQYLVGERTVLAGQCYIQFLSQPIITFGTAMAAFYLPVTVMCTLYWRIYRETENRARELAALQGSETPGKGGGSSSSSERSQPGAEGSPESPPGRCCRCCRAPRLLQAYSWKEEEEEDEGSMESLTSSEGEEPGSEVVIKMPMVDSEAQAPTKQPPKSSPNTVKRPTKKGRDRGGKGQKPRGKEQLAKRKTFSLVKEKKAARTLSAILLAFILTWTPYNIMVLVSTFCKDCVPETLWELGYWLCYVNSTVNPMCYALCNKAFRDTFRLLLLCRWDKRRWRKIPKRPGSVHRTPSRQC
Excerpt: Furthermore the pharmacological properties of the compounds of the invention can also be illustrated by determining their capability to inhibit ^3 H-PRZ (pirenzepine, [N-methyl-^3 H]) binding to rat cerebral cortex membranes. Pirenzepine binds selectively to subtype of muscarinic receptors. Historically the type is named the M1 -site, whereas pirenzepine sensitive site would be more appropriate. Although selective for M1 -sites pirenzepine also interact with M2 -sites.
All preparations are performed at 0°-4° C. unless otherwise indicated. Fresh cortex (0.1-1 g) from male Wistar rats (150-200 g) is homogenized for 5-10 s. in 10 ml 20 mM Hepes pH: 7.4, with an Ultra-Turraxhomogenizer. The homogenizer is rinzed with 2×10 ml of buffer and the combined suspension centrifuged for 15 min at 40,000×g. The pellet is washed three times with buffer. In each step the pellet is homogenized as before in 3×10 ml of buffer and centrifuged for 10 min at 40,000×g.
The final pellet is homogenized in 20 mM Hepes pH: 7.4 (100 ml per g of original tissue) and used for binding assay. Aliquots of 0.5 ml is added 20 μl of test solution and 25 μl of ^3 H-Pirenzepine (1.0 nM, final conc.), mixed and incubated for 60 min at 20° C. Non-specificbinding is determined in triplicate using atropine (1 μg/ml, final conc.) as the test substance. After incubation samples are added 5 ml of ice-cold buffer and poured directly onto Whatman GF/C glass fiber filters inder suction and immediately washed 2 times with 5 ml of ice-cold buffer. The amount of radioactivity on the filters are determined by conventional liquid scintillation counting. Specific binding is total binding minus non-specific binding.
Test substances are dissolved in 10 ml water, at a concentration of 0.22 mg/ml. 25-75% inhibition of specific binding must be obtained before calculation of IC50.
The test value will be given as IC50 (the concentration (nM) of the test substance which inhibits the specific binding of ^3 H-PRZ by 50%).
(§1) IC50 =(applied test substance concentration)×(Cx /Co -Cx)nM
(§2) where Co is specific binding in control assays and Cx is the specific binding in the test assay. (The calculations assume normal mass-action kinetics).

[2] = molecular target: muscarinic acetylcholine receptors; assay: inhibition of specific binding of ^3 H-Oxotremorine-M (^3 H-Oxo) to rat cortex homogenate; set-up: species or system male Wistar rats; conditions: 1.0 nM radioligand, 30 min at 25° C., pH 7.4
Excerpt: The pharmacological properties of the compounds of the invention can be illustrated by determining their capability to inhibit the specific binding of ^3 H-Oxotremorine-M (^3 H-Oxo). Birdsdall N. J. M., Hulme E. C., and Burgen A. S. V. (1980). "The Character of Muscarinic Receptors in Different Regions of the Rat Brain". Proc. Roy. Soc. London (Series B) 207,1.
^3 H-Oxo labels muscarinic receptor in the CNS (with a preference for agonist domains of the receptors). Three different sites are labelled by ^3 H-Oxo. […] Using the present experimental conditions only the high and medium affinity sites are determined.
The inhibitory effects of compounds on ^3 H-Oxo binding reflects the affinity for muscarinic acetylcholine receptors.
All preparations are performed at 0°-4° C. unless otherwise indicated. Fresh cortex (0.1-1 g) from male Wistar rats (150-250 g) is homogenized for 5-10 s in 10 ml 20 mM Hepes pH: 7.4, with an Ultra-Turrax homogenizer. The homogenizer is rinsed with 10 ml of buffer and the combined suspension centrifuged for 15 min. at 40,000×g. The pellet is washed three times with buffer. In each step the pellet is homogenized as before in 2×10 ml of buffer and centrifuged for 10 min. at 40,000×g.
The final pellet is homogenized in 20 mM Hepes pH: 7.4 (100 ml per g of original tissue) and used for binding assay. Aliquots of 0.5 ml is added 25 ul of test solution and 25 ul of ^3 H-Oxotremorine (1.0 nM, final concentration) mixed and incubated for 30 min. at 25° C. Non-specific binding is determined in triplicate using arecoline (1 ug/ml, final concentration) as the test substance. After incubation samples are added 5 ml of ice-cold buffer and poured directly onto Whatman GF/C glass fiber filters under suction and immediately washed 2 times with 5 ml of ice-cold buffer. The amount of radioactivity on the filters are determined by conventional liquid scintillation counting. Specific binding is total binding minus non specific binding.
Test substances are dissolved in 10 ml water (if necessary heated on a steam-bath for less than 5 min.) at a concentration of 2.2 mg/ml. 25-75% inhibition of specific binding must be obtained before calculation of IC50.
The test value will be given as IC50 (the concentration (nM) of the test substance which inhibits the specific binding of ^3 H-Oxo by 50%).
as §1, §2

[3] = molecular target: muscarinic receptor in the CNS; conditions: read-out: affinity of site labelled by ^3 H-Oxo, cited from earlier work

SMILES	IC50 [1] [nM]	^3 H-Oxo-M IC50 [2] [µg/mL]	Kd ([3]; first of three sites (high affinity)) [nM]	Kd ([3]; second of three sites (medium affinity)) [nM]	Kd ([3]; third of three sites, not determined under the present experimental conditions) [nM]	IC50 ([1]; rat cortex, 1.0 nM ^3 H-Pirenzepine, 60 min at 20° C., pH 7.4, read-out: ^3 H-Pz IC50) [nM]
CN1C2CCC1c1c(sc3nsnc13)C2.O=C(O)C(=O)O (stereo not shown) [Compound 1, 6,8-Ethano-7-methyl-5,6,7,8-tetrahydro-1,2,5-thiadiazolo[3',4':4,5]thieno[3,2-c]pyridine oxalate]	> 1000	0.27				
C1CC2CN(C1)Cc1c2sc2nsnc12.O=C(O)C(=O)O (stereo not shown) [Compound 3, 5,9-Methano-5,6,7,8,9,10-hexahydro-1,2,5-thiadiazolo[3',4':4,5]thieno[3,2-c]azocine oxalate]	26	0.0022				
C[N+](C)(C)CC#CCN1CCCC1=O [^3 H-Oxo, ^3 H-Oxotremorine-M]			1.8	20	3000	
CN1CCC2=C(C1)c1nsnc1SC2 [Compound 5, oxalate]	80	0.014				
O=C(O)C(=O)O.c1cc2nsnc2c2c1CCNC2 [Compound 4, 6,7,8,9-Tetrahydro[1,2,5]thiadiazolo[3,4-h]isoquinoline oxalate]	255	0.014				
C1Cc2sc3nsnc3c2CN1.O=C(O)C(=O)O [Compound 2, 5,6,7,8-Tetrahydro-1,2,5-thiadiazolo[3',4':4,5]thieno[3,2-c]pyridine oxalate]		0.0064				284
